Each block holds one compound with its values, some of them ahead of it.
Legend:
[1] = target: T1, Inhibitor of nuclear factor kappa-B kinase subunit beta (Homo sapiens, UniProt O14920)
T1 sequence (O14920 whole entry): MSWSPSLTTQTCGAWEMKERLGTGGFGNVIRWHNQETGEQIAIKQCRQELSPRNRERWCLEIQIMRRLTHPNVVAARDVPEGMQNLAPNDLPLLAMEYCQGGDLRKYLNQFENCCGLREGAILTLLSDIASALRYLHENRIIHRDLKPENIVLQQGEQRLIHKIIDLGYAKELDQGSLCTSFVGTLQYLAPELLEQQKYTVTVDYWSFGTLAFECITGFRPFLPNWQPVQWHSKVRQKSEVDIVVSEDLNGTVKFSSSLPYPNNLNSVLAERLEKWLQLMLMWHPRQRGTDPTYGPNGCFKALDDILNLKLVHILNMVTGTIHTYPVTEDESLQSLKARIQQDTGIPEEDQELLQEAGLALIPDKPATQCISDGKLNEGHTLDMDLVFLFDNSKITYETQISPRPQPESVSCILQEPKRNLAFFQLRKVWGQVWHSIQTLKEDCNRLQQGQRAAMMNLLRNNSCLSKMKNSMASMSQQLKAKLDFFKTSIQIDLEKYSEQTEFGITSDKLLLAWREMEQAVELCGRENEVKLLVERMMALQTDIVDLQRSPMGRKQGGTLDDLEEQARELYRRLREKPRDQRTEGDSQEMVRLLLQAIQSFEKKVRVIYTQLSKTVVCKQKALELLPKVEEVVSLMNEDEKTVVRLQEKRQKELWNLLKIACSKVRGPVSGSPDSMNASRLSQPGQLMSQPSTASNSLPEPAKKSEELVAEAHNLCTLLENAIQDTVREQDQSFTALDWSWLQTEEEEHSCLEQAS

[2] = target: T2, Casein kinase I isoform alpha (Homo sapiens, UniProt P48729)
[3] = target: T3, Casein kinase I isoform delta (Homo sapiens, UniProt P48730)
[4] = target: T4, Casein kinase I isoform epsilon (Homo sapiens, UniProt P49674)
[5] = target: T2, Casein kinase I isoform alpha; remark: listed apart in the source
[6] = target: T3, Casein kinase I isoform delta; remark: listed apart in the source
[7] = target: T4, Casein kinase I isoform epsilon; remark: listed apart in the source

T4 sequence (P49674 whole entry, canonical isoform): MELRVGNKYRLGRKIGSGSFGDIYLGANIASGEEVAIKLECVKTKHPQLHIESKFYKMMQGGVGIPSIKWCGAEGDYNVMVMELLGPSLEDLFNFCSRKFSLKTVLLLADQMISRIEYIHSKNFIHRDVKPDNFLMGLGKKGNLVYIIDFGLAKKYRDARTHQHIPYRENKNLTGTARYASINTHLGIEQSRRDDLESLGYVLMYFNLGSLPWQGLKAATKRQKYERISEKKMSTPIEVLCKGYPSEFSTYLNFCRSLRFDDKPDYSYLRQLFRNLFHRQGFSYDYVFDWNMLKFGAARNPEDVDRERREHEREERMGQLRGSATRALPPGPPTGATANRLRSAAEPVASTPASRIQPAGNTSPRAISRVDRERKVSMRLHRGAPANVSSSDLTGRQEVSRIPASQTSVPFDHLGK
T2 sequence (P48729 whole entry, canonical isoform): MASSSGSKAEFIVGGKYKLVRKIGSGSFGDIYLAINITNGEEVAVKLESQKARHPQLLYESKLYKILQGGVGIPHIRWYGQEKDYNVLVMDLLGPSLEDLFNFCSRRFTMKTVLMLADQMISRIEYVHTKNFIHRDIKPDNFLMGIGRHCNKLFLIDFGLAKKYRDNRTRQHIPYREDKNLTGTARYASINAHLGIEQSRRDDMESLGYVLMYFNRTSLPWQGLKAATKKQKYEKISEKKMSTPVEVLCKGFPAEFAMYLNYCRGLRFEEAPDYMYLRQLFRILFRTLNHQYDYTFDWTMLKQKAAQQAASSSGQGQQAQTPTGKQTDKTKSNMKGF
T3 sequence (P48730 whole entry, canonical isoform): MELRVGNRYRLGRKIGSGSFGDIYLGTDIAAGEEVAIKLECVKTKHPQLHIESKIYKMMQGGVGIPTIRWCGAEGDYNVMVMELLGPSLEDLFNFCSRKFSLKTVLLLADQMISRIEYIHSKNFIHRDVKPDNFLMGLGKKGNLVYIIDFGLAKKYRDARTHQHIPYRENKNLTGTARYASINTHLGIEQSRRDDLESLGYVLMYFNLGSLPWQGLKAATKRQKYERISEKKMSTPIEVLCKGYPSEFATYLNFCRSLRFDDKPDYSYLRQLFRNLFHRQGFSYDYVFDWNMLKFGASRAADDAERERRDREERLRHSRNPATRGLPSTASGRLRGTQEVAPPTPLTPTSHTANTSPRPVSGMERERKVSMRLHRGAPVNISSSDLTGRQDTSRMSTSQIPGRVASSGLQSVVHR

IC50 [1]: > 10000 nM
SMILES: CN(C)C(=O)c1sc2nc(N3CCC(S(C)(=O)=O)CC3)cc(C(F)(F)F)c2c1N [BI-5026]

IC50 [2]: 7.2 nM
IC50 [3]: 6.1 nM
IC50 [4]: 27.3 nM
SMILES: CN1CCC(F)(Cn2cnc(-c3ccc(F)cn3)c2-c2ccnc3[nH]ccc23)CC1

IC50 [5]: > 3000 nM
IC50 [6]: > 3000 nM
IC50 [7]: > 3000 nM
SMILES: CCc1ccc(-c2ncn(CC3(F)CCN(C)CC3)c2-c2ccnc3[nH]ccc23)nc1

— ChEMBL document CHEMBL5446079, “Affinity Biochemical Literature for EUbOPEN Chemogenomic Library” (2024)
